# Laboratory results: ChEMBL document CHEMBL4699438, “Toward the discovery and development of effective modulators of α-synuclein amyloid aggregation” (Eur J Med Chem, 2019)
# pIC50: −log10 of the molar value.
# How the values were obtained:
# [1] = biological target: T1, Alpha-synuclein (Homo sapiens, UniProt P37840); experiment: Inhibition of wild type alpha-synuclein aggregation (unknown origin) expressed in Escherichia coli BL21 cells incubated for 30 days by thioflavin T based fluorescence assay
# [2] = biological target: T1, Alpha-synuclein; experiment: Inhibition of human alpha-synuclein aggregation expressed in Escherichia coli BL21(DE3) cells assessed as percent of un-inhibition measured at 16 hrs by thioflavin T based fluorescence assay relative to control; set-up: concentration or dose not given beside the values
# [3] = biological target: T1, Alpha-synuclein; experiment: Inhibition of alpha-synuclein aggregation (unknown origin) expressed in Escherichia coli BL21(DE3) cells assessed as HFIP-induced protein aggregation measured after 16 to 18 hrs by thioflavin T based fluorescence assay relative to control; set-up: scale not given: the % may be the effect or the level left; conditions: time hrs 16-18
# [4] = biological target: T1, Alpha-synuclein; experiment: Inhibition of alpha-synuclein aggregation (unknown origin) expressed in Escherichia coli BL21(DE3) cells; conditions: concentration not given here
# [5] = biological target: T1, Alpha-synuclein; experiment: Inhibition of human alpha-synuclein filament formation expressed in Escherichia coli BL21(DE3) cells incubated for 72 hrs by thioflavin S based fluorescence assay
# [6] = biological target: T1, Alpha-synuclein; experiment: Inhibition of alpha-synuclein fibril formation (unknown origin) incubated for 24 hrs to 7 days by thioflavin S based fluorescence assay
# [7] = biological target: T1, Alpha-synuclein; experiment: Inhibition of alpha-synuclein aggregation (unknown origin) incubated for 8 days by thioflavin S based fluorescence assay
# [8] = biological target: T1, Alpha-synuclein; experiment: Inhibition of alpha-synuclein fibril formation (unknown origin) incubated for 6 days by thioflavin S based fluorescence assay
# [9] = Elimination half-life in human; assay type: ADME; conditions: read-out: beta t1/2 (converted)
# [10] = biological target: T1, Alpha-synuclein; experiment: Inhibition of wild type human alpha-synuclein fibrillization expressed in Escherichia coli BL21(DE3)pLysS by thioflavin-T based fluorescence assay
# [11] = biological target: Amyloid-beta precursor protein (Homo sapiens, UniProt P05067); experiment: Inhibition of amyloid beta (1 to 40) (unknown origin) incubated for 24 hrs to 7 days by thioflavin S based fluorescence assay
# Amyloid-beta precursor protein, sequence (P05067 whole entry): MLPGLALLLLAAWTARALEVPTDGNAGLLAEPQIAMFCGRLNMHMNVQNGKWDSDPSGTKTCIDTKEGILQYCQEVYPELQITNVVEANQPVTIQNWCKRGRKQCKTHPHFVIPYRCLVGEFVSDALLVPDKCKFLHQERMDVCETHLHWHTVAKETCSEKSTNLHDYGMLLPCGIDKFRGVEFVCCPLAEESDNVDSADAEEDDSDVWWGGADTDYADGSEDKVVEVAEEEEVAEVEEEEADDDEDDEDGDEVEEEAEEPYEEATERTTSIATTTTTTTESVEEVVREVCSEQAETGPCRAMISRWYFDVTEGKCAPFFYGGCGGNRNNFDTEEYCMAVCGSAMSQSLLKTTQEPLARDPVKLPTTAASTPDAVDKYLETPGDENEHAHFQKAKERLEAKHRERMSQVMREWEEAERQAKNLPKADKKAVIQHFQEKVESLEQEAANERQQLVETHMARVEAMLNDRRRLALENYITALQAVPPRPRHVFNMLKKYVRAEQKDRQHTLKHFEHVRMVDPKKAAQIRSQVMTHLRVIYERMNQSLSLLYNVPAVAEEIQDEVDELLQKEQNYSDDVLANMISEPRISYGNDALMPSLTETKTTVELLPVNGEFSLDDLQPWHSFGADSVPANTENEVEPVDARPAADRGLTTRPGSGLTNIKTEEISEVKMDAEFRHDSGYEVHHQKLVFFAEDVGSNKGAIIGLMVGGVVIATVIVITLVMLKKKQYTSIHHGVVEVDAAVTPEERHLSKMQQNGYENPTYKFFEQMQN
compound,measurement,setting,value
COc1cc(/C=C/c2cc(/C=C/c3ccc(O)c(OC)c3)n(-c3cccc([N+](=O)[O-])c3)n2)ccc1O,pIC50,[1],4.05
CCC(=O)N[C@@H](Cc1c[nH]c2ccccc12)C(=O)N[C@H](C(=O)N1CCC[C@@H]1C(=O)NCC(=O)N[C@@H](CCCCN)C(=O)N[C@@H](Cc1c[nH]c2ccccc12)C(=O)N[C@H](C(=O)NCC(N)=O)[C@@H](C)O)[C@@H](C)CC,Remaining aggregation (% of control),[2],69%
same,Activity,[3],37%
same,inhibition,[4],50%
CC[C@H](C)[C@H](NC(=O)[C@H](CO)NC(=O)[C@H](Cc1c[nH]c2ccccc12)NC(=O)[C@@H](NC(=O)[C@H](CC(C)C)NC(=O)[C@H](CCCCN)NC(=O)[C@@H](N)CCCCN)[C@@H](C)O)C(=O)N1CCC[C@@H]1C(=O)NCC(=O)N[C@@H](CCCCN)C(=O)N[C@@H](CCCCN)C(=O)N[C@@H](Cc1c[nH]c2ccccc12)C(=O)N[C@H](C(=O)N[C@H](C(=O)N[C@@H](CO)C(=O)N[C@@H](C)C(=O)O)C(C)C)[C@@H](C)O,Remaining aggregation (% of control),[2],20%
CC[C@H](C)[C@H](NC(=O)[C@H](Cc1c[nH]c2ccccc12)NC(=O)[C@H](CCCCN)NC(=O)CN)C(=O)N[C@H](C(=O)N[C@H](C(=O)N[C@@H](CO)C(=O)N[C@H](C(=O)N1CCC[C@@H]1C(=O)N1CCC[C@H]1C(=O)N[C@@H](CCCCN)C(=O)N[C@@H](CCCCN)C(=O)N[C@@H](CC(C)C)C(=O)N[C@H](C(=O)N[C@H](C(=O)N[C@@H](Cc1c[nH]c2ccccc12)C(=O)N[C@H](C(=O)N1CCC[C@@H]1C(=O)O)[C@@H](C)CC)C(C)C)[C@@H](C)O)[C@@H](C)CC)C(C)C)[C@@H](C)O,Activity,[3],34%
same,inhibition,[4],65%
CC[C@H](C)[C@H](NC(=O)[C@H](Cc1c[nH]c2ccccc12)NC(=O)[C@H](CCCCN)NC(=O)CNC(=O)[C@H]1CCCN1C(=O)[C@@H](NC(=O)[C@H](Cc1c[nH]c2ccccc12)NC(=O)[C@@H](NC(=O)[C@@H](NC(=O)[C@H](CC(C)C)NC(=O)[C@H](CCCCN)NC(=O)[C@@H](N)CCCCN)[C@@H](C)O)C(C)C)[C@@H](C)CC)C(=O)N[C@H](C(=O)N[C@H](C(=O)N[C@@H](CO)C(=O)N[C@@H](C)C(=O)O)C(C)C)[C@@H](C)O,Remaining aggregation (% of control),[2],19%
same,Activity,[3],27%
same,inhibition,[4],75%
CC[C@H](C)[C@H](NC(=O)[C@H](Cc1c[nH]c2ccccc12)NC(=O)[C@H](CCCCN)NC(=O)CNC(=O)[C@H]1CCCN1C(=O)[C@@H](NC(=O)[C@H](Cc1c[nH]c2ccccc12)NC(=O)[C@@H](NC(=O)[C@@H](NC(=O)[C@H](CC(C)C)NC(=O)[C@H](CS)NC(=O)[C@@H](N)CCCCN)[C@@H](C)O)C(C)C)[C@@H](C)CC)C(=O)N[C@H](C(=O)N[C@H](C(=O)N[C@@H](CS)C(=O)N[C@@H](C)C(=O)O)C(C)C)[C@@H](C)O,Activity,[3],49%
same,inhibition,[4],50%
CC[C@H](C)[C@H](NC(=O)[C@H](Cc1ccc(O)cc1)NC(=O)[C@H](CCCCN)NC(=O)CNC(=O)[C@H]1CCCN1C(=O)[C@@H](NC(=O)[C@H](Cc1ccc(O)cc1)NC(=O)[C@@H](NC(=O)[C@@H](NC(=O)[C@H](CC(C)C)NC(=O)[C@H](CCCCN)NC(=O)[C@@H](N)CCCCN)[C@@H](C)O)C(C)C)[C@@H](C)CC)C(=O)N[C@H](C(=O)N[C@H](C(=O)N[C@@H](CO)C(=O)N[C@@H](C)C(=O)O)C(C)C)[C@@H](C)O,Remaining aggregation (% of control),[2],18%
O=C(O[C@@H]1Cc2c(O)cc(O)cc2O[C@H]1c1ccc(O)c(O)c1)c1cc(O)c(O)c(O)c1 [(-)-CATECHINGALLATE],pIC50,[5],4.67
Oc1cc(O)c2c(c1)O[C@H](c1ccc(O)c(O)c1)[C@H](O)C2 [(-)-EPICATECHIN],pIC50,[5],4.52
same,pIC50,[6],6.10
C[C@]12CCC(=O)C=C1CC[C@@H]1[C@@H]2CC[C@]2(C)C(=O)CC[C@@H]12 [ANDROSTENEDIONE],pIC50,[7],4.07
O=c1cc(-c2ccccc2)oc2cc(O)c(O)c(O)c12 [BAICALEIN],pIC50,[5],5.09
CC(C)C[C@H]1C(=O)N2CCC[C@H]2[C@]2(O)O[C@](NC(=O)[C@@H]3C=C4c5cccc6[nH]c(Br)c(c56)C[C@H]4N(C)C3)(C(C)C)C(=O)N12 [BROMOCRIPTINE],pIC50,[8],4.61
COc1cc(/C=C/c2cc(/C=C/c3ccc(O)c(OC)c3)[nH]n2)ccc1O [CURCUMIN PYRAZOLE],pIC50,[1],3.90
Oc1cc(O)c2cc(O)c(-c3ccc(O)c(O)c3)[o+]c2c1 [CYANIDIN CHLORIDE],pIC50,[5],4.99
Oc1cc(O)c2cc(O)c(-c3cc(O)c(O)c(O)c3)[o+]c2c1 [DELPHINIDIN CHLORIDE],pIC50,[5],5.19
NCCc1ccc(O)c(O)c1 [DOPAMINE],pIC50,[8],6.28
same,pIC50,[5],5.15
O=C(O[C@@H]1Cc2c(O)cc(O)cc2O[C@@H]1c1ccc(O)c(O)c1)c1cc(O)c(O)c(O)c1 [EPICATECHIN GALLATE],pIC50,[5],5.01
same,half-life,[9],3.4 h
Oc1cc(O)c2c(c1)O[C@H](c1cc(O)c(O)c(O)c1)[C@H](O)C2 [EPIGALLOCATECHIN],pIC50,[5],4.97
C[C@]12CC[C@@H]3c4ccc(O)cc4CC[C@H]3[C@@H]1CC[C@@H]2O [ESTRADIOL],pIC50,[7],4.22
C[C@]12CC[C@@H]3c4ccc(O)cc4CC[C@H]3[C@@H]1C[C@@H](O)[C@@H]2O [ESTRIOL],pIC50,[7],4.70
C[C@]12CC[C@@H]3c4ccc(O)cc4CC[C@H]3[C@@H]1CCC2=O [ESTRONE],pIC50,[7],4.03
COc1cc(/C=C/C(=O)O)ccc1O [FERULATE],pIC50,[6],6.12
O=C(O[C@@H]1Cc2c(O)cc(O)cc2O[C@H]1c1cc(O)c(O)c(O)c1)c1cc(O)c(O)c(O)c1 [GALLOCATECHIN GALLATE],pIC50,[5],5.44
Oc1cc(O)c2c(c1)O[C@H](c1cc(O)c(O)c(O)c1)[C@@H](O)C2 [GALLOCATECHIN],pIC50,[5],5.05
Cc1cc(O)c2c(=O)c3c(O)cc(O)c4c5c(O)cc(O)c6c(=O)c7c(O)cc(C)c8c1c2c(c34)c(c78)c65 [HYPERICIN],pIC50,[5],5.12
O=c1cc(-c2ccc(O)c(O)c2)oc2cc(O)cc(O)c12 [LUTEOLIN],pIC50,[5],4.55
CC1=CC(=O)c2ccccc2C1=O [MENADIONE],pIC50,[10],4.82
CC(C)=CCC/C(C)=C/CC/C(C)=C/CC/C(C)=C/CC1=C(C)C(=O)c2ccccc2C1=O [MENATETRENONE],pIC50,[10],4.82
O=c1c(O)c(-c2cc(O)c(O)c(O)c2)oc2cc(O)cc(O)c12 [MYRICETIN],pIC50,[5],4.88
same,pIC50,[6],6.66
O=C1C=CC(=O)c2ccccc21 [NAPHTHOQUINONE],pIC50,[10],4.82
CC(Cc1ccc(O)c(O)c1)C(C)Cc1ccc(O)c(O)c1 (configuration not stated) [NORDIHYDROGUAIARETIC ACID],pIC50,[7],6.68
same,pIC50,[6],6.66
CCCN1C[C@H](CSC)C[C@@H]2c3cccc4[nH]cc(c34)C[C@H]21 [PERGOLIDE],pIC50,[8],5.10
CC1=C(C/C=C(\C)CCC[C@H](C)CCC[C@H](C)CCCC(C)C)C(=O)c2ccccc2C1=O [PHYTONADIONE],pIC50,[10],4.82
Oc1cc(O)c2c(c1)O[C@H](c1ccc(O)c(O)c1)[C@H](O)[C@H]2c1c(O)cc(O)c2c1O[C@H](c1ccc(O)c(O)c1)[C@@H](O)C2 [PROCYANIDIN B1],pIC50,[5],5.14
Oc1cc(O)c2c(c1)O[C@H](c1ccc(O)c(O)c1)[C@H](O)[C@H]2c1c(O)cc(O)c2c1O[C@H](c1ccc(O)c(O)c1)[C@H](O)C2 [PROCYANIDIN B2],pIC50,[5],5.37
O=c1c(O)cccc2cc(O)c(O)c(O)c12 [PURPUROGALLIN],pIC50,[5],4.89
O=c1c(O)c(-c2ccc(O)c(O)c2)oc2cc(O)cc(O)c12 [QUERCETIN],pIC50,[5],4.70
CC1=C(/C=C/C(C)=C/C=C/C(C)=C/C=O)C(C)(C)CCC1 [RETINAL],pIC50,[11],6.74
same,pIC50,[6],6.72
CC1=C(/C=C/C(C)=C/C=C/C(C)=C/CO)C(C)(C)CCC1 [RETINOL],pIC50,[11],6.74
same,pIC50,[6],6.72
CO[C@H]1/C=C/O[C@@]2(C)Oc3c(C)c(O)c4c(O)c(c(/C=N/N5CCN(C)CC5)c(O)c4c3C2=O)NC(=O)/C(C)=C\C=C\[C@H](C)[C@H](O)[C@@H](C)[C@@H](O)[C@@H](C)[C@H](OC(C)=O)[C@@H]1C [RIFAMPIN],pIC50,[5],4.34
same,pIC50,[6],5.15
O=C(/C=C/c1ccc(O)c(O)c1)O[C@H](Cc1ccc(O)c(O)c1)C(=O)O [ROSMARINIC ACID],pIC50,[6],6.68
C#CCN(C)[C@H](C)Cc1ccccc1 [SELEGILINE],pIC50,[8],6.57
C[C@]12CC[C@H]3[C@@H](CCC4=CC(=O)CC[C@@]43C)[C@@H]1CC[C@@H]2O [TESTOSTERONE],pIC50,[7],4.01
CN(C)[C@@H]1C(O)=C(C(N)=O)C(=O)[C@@]2(O)C(O)=C3C(=O)c4c(O)cccc4[C@@](C)(O)[C@H]3C[C@@H]12 [TETRACYCLINE],pIC50,[6],5.22
CC1=C(/C=C/C(C)=C/C=C/C(C)=C/C(=O)O)C(C)(C)CCC1 [TRETINOIN],pIC50,[11],6.74
same,pIC50,[6],5.52
H-KKLTVWI-OH,Remaining aggregation (% of control),[2],61%
H-KTWNAAAGKWTE-OH,Remaining aggregation (% of control),[2],81%
